# Source: ChEMBL document CHEMBL4043168, “The design and SAR of a novel series of 2-aminopyridine based LRRK2 inhibitors” (Bioorg Med Chem Lett, 2017)
# Tests used:
# [1] = molecular target: Tyrosine-protein kinase Fer (Homo sapiens) (UniProt P16591); experiment: Inhibition of FER conserved Lys2 (TSVAVKTCKEDLPQELK) in human PBMC at 0.1 uM
# [2] = molecular target: Ribosomal protein S6 kinase alpha-1 (Homo sapiens) (UniProt Q15418); experiment: Inhibition of RSK1 domain2 conserved Lys2 (DLKPSNILYVDESGNPECLR) in human PBMC at 0.1 uM
# Ribosomal protein S6 kinase alpha-1 (Homo sapiens), sequence (Q15418 whole entry, the tested form may be a part): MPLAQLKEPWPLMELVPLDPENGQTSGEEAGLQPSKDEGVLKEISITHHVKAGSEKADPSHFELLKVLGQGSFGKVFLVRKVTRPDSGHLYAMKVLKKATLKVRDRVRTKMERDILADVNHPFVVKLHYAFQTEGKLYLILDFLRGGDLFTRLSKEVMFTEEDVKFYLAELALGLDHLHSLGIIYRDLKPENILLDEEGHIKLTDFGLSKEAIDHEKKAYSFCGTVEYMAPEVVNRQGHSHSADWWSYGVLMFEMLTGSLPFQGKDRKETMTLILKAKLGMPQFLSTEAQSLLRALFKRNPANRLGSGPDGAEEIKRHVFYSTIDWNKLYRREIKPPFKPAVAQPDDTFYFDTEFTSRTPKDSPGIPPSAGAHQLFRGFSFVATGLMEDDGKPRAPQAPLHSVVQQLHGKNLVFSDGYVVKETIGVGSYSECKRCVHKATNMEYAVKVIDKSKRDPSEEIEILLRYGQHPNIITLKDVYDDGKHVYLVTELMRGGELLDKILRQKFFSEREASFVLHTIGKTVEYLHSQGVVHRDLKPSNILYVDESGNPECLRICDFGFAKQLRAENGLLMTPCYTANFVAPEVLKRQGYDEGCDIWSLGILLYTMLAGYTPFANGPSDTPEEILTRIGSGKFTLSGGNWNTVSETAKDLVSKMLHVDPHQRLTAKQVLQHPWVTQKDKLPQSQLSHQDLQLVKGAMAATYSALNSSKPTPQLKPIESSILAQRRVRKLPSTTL
# [3] = molecular target: Serine/threonine-protein kinase ULK1 (Homo sapiens) (UniProt O75385); experiment: Inhibition of ULK1 conserved Lys2 (DLKPQNILLSNPAGR) in human PBMC at 1 uM
# [4] = molecular target: Tyrosine-protein kinase JAK1 (Homo sapiens) (UniProt P23458); experiment: Inhibition of JAK1 domain1 (QLASALSYLEDKDLVHGNVCTKNLLLAR) in human PBMC at 0.1 uM
# [5] = molecular target: Proto-oncogene tyrosine-protein kinase Src (Homo sapiens) (UniProt P12931); experiment: Inhibition of SRC ATP binding site (QGAKFPIKWTAPEAALYGR) in human PBMC at 1 uM
# Proto-oncogene tyrosine-protein kinase Src (Homo sapiens), sequence (P12931 2-536 limits assumed): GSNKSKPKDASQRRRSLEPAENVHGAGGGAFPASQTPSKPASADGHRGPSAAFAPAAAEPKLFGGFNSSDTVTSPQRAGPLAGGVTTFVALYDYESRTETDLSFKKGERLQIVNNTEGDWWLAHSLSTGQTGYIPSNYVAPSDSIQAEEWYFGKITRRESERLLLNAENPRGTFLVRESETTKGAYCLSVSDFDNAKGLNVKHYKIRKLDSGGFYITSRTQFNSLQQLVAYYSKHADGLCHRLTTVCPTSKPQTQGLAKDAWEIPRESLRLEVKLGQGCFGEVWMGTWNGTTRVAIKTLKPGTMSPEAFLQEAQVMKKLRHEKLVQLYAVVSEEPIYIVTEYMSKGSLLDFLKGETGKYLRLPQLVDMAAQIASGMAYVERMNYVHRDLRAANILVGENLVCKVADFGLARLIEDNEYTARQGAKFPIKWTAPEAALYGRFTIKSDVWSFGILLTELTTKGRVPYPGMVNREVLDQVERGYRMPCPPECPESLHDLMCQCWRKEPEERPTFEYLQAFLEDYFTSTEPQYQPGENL
# [6] = molecular target: Tyrosine-protein kinase HCK (Homo sapiens) (UniProt P08631); experiment: Inhibition of HCK activation Loop (EGAKFPIKWTAPEAINFGSFTIK) in human PBMC at 0.1 uM
# [7] = molecular target: Ribosomal protein S6 kinase alpha-3 (Homo sapiens) (UniProt P51812); experiment: Inhibition of RSK2 domain1 ATP binding site (VLGQGSFGKVFLVK) in human PBMC at 0.1 uM
# Ribosomal protein S6 kinase alpha-3 (Homo sapiens), sequence (P51812 whole entry, the tested form may be a part): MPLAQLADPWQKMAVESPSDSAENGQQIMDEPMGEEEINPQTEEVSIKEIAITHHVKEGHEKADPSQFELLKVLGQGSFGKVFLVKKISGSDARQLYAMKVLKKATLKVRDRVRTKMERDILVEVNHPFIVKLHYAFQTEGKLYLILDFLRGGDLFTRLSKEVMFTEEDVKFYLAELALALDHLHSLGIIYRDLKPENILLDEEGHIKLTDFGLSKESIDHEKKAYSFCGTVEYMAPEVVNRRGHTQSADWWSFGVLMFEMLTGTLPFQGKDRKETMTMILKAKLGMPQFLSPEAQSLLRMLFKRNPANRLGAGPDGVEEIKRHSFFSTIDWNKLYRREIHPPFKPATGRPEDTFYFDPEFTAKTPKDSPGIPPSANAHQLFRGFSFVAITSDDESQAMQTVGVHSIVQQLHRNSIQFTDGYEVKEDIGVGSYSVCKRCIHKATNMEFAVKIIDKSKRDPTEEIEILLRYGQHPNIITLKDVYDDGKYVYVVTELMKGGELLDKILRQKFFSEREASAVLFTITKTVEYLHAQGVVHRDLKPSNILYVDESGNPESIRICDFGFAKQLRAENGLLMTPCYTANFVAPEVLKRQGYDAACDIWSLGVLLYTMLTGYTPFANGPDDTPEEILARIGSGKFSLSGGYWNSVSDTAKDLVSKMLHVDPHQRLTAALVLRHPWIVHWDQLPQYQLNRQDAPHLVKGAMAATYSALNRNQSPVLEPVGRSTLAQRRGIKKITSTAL
# [8] = molecular target: Mitogen-activated protein kinase kinase kinase kinase 5 (Homo sapiens) (UniProt Q9Y4K4); experiment: Inhibition of KHS1 conserved Lys1 (NVHTGELAAVKIIK) in human PBMC at 1 uM
# [9] = molecular target: Mitogen-activated protein kinase 12 (Homo sapiens) (UniProt P53778); experiment: Inhibition of p38g conserved Lys2 (DLKPGNLAVNEDCELK) in human PBMC at 0.1 uM
# [10] = molecular target: Tyrosine-protein kinase Fgr (Homo sapiens) (UniProt P09769); experiment: Inhibition of FGR conserved Lys1 (LIKDDEYNPCQGSKFPIK) in human PBMC at 0.1 uM
# [11] = molecular target: Serine/threonine-protein kinase Nek4 (Homo sapiens) (UniProt P51957); experiment: Inhibition of NEK4 conserved Lys2 (DLKTQNVFLTR) in human PBMC at 1 uM
# [12] = molecular target: T1, Mitogen-activated protein kinase kinase kinase 6 (Homo sapiens) (UniProt O95382); experiment: Inhibition of MAP3K6 conserved Lys1 (IAIKEIPER) in human PBMC at 0.1 uM
# T1 sequence (whole entry): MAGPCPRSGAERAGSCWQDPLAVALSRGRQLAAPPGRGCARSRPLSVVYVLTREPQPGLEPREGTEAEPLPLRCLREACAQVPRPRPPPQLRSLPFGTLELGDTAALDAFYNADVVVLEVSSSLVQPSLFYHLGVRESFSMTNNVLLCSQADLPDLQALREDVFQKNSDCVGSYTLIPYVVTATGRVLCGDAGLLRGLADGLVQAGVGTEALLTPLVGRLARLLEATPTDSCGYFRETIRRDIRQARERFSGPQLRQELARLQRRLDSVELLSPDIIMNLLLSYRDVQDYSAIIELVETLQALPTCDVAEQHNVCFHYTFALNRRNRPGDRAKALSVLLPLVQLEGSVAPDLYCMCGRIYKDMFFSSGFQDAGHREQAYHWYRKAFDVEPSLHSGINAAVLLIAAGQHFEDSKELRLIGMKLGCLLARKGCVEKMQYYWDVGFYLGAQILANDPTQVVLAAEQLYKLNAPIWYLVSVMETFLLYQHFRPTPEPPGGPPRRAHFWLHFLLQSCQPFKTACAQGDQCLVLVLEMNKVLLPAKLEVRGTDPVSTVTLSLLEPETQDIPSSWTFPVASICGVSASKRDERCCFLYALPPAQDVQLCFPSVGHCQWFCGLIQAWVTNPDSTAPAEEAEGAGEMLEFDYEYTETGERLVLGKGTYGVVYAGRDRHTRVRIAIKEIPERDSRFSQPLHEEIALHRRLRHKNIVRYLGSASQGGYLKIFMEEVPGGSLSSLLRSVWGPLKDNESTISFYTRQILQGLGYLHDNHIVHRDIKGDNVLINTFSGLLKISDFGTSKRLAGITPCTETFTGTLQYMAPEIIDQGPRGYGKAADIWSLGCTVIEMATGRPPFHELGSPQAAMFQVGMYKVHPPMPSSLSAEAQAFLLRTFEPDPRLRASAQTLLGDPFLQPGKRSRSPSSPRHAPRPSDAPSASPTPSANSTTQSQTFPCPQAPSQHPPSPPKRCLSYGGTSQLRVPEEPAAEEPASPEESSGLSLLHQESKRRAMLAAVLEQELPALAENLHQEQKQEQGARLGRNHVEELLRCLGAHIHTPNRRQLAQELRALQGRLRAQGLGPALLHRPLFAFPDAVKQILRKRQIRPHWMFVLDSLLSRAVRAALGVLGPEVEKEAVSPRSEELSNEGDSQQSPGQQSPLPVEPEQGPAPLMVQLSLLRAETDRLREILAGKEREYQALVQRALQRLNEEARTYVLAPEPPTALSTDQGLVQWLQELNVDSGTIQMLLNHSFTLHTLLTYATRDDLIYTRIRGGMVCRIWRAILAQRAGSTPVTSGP
# [13] = molecular target: Ribosomal protein S6 kinase alpha-1 (Homo sapiens) (UniProt Q15418); experiment: Inhibition of RSK1 conserved Lys2 (DLKPENILLDEEGHIK) in human PBMC at 0.1 uM
# [14] = molecular target: Phosphatidylinositol 3-kinase catalytic subunit type 3 (Homo sapiens) (UniProt Q8NEB9); experiment: Inhibition of PIK3C3 ATP binding site (TEDGGKYPVIFKHGDDLR) in human PBMC at 1 uM
# Phosphatidylinositol 3-kinase catalytic subunit type 3 (Homo sapiens), sequence (Q8NEB9 whole entry): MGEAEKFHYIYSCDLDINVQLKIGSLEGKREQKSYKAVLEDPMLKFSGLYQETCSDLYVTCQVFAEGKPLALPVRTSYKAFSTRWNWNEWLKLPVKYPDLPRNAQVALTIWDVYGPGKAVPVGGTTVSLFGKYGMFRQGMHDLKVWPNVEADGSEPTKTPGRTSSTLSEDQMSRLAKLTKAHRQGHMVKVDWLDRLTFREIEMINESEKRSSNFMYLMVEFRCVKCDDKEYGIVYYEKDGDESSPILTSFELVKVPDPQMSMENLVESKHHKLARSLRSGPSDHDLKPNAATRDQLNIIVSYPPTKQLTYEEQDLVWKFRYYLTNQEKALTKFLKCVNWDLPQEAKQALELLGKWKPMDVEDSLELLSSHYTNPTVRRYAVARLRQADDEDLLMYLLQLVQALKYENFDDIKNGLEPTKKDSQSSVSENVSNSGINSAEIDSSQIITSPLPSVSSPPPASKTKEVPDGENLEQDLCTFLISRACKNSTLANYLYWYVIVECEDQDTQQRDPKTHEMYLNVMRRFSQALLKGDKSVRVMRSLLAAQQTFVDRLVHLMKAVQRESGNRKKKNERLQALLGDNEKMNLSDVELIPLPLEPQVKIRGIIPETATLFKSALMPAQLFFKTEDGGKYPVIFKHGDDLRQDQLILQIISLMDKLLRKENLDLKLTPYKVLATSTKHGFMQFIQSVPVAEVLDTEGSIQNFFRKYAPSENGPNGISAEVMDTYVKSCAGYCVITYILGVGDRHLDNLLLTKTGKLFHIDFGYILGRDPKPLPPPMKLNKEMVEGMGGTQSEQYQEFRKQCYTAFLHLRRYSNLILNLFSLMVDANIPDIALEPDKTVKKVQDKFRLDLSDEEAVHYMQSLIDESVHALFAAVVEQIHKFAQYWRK
# [15] = molecular target: Calcium/calmodulin-dependent protein kinase type II subunit gamma (Homo sapiens) (UniProt Q13555); experiment: Inhibition of CaMK2g labeling at conserved Lys2 (DLKPENLLLASK) in human PBMC at 1 uM
# [16] = molecular target: STE20-like serine/threonine-protein kinase (Homo sapiens) (UniProt Q9H2G2); experiment: Inhibition of SLK conserved Lys1 (AQNKETSVLAAAKVIDTK) in human PBMC at 1 uM
# STE20-like serine/threonine-protein kinase (Homo sapiens), sequence (Q9H2G2 whole entry, looked up): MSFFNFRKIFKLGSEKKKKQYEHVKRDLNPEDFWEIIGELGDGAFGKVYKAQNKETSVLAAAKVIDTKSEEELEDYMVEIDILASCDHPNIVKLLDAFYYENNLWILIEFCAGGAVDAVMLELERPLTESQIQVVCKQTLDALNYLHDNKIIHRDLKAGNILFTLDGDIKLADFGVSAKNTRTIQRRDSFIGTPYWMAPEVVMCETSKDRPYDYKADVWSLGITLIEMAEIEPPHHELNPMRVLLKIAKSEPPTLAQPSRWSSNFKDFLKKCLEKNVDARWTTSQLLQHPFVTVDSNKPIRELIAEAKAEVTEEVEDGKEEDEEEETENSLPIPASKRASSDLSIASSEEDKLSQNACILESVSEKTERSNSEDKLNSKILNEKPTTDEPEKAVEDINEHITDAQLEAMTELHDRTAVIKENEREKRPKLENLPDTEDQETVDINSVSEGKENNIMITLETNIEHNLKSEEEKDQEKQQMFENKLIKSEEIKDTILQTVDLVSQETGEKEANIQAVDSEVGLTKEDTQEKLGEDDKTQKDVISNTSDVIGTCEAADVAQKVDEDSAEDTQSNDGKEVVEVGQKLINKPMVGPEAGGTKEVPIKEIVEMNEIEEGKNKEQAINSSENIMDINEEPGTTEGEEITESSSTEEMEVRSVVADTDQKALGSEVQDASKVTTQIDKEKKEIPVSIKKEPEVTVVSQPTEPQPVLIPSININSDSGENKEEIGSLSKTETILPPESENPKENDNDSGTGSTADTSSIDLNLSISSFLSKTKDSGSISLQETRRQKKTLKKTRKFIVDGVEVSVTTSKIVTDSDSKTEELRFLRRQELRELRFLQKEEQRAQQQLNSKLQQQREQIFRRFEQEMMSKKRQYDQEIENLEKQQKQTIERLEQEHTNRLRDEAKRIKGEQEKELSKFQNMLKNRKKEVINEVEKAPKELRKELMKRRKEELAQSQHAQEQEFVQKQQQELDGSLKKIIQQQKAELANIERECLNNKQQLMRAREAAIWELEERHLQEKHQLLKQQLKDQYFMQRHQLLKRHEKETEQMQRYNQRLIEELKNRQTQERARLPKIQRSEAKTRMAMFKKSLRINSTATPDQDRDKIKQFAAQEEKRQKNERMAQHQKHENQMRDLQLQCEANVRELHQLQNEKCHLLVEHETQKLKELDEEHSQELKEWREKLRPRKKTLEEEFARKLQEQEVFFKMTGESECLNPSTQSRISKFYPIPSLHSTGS
# [17] = Ratio of unbound drug level in mouse brain to plasma at 10 mg/kg, po; assay type: ADME, organism-based; details: read-out: K(p,uu,brain)
# [18] = molecular target: Ribosomal protein S6 kinase alpha-3 (Homo sapiens) (UniProt P51812); experiment: Inhibition of RSK2 domain1 activation Loop (LTDFGLSKESIDHEKK) in human PBMC at 0.1 uM
# Tyrosine-protein kinase Fer (Homo sapiens), sequence (P16591 whole entry, looked up, the tested form may be a part): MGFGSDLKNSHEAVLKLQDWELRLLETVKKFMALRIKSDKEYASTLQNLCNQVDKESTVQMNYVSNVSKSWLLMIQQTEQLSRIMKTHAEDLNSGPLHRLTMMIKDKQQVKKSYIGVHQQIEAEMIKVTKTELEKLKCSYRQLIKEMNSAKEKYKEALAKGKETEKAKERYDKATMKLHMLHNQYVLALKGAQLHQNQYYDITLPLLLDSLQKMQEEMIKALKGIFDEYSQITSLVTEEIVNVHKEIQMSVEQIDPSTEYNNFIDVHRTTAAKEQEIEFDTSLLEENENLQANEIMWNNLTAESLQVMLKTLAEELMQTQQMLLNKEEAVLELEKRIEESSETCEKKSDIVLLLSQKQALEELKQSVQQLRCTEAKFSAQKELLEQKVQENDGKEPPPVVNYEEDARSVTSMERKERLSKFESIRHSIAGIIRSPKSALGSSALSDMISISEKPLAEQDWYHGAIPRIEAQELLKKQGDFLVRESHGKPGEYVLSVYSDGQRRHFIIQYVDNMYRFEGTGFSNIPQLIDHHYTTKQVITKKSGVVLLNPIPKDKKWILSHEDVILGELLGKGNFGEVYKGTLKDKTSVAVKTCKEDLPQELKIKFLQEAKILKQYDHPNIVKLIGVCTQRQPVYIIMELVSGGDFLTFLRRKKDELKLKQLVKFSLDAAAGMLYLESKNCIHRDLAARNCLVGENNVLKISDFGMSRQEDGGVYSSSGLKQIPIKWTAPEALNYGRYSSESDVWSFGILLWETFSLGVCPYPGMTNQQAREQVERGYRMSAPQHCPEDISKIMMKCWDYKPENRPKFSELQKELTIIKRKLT
compound,measurement,setting,value
CC(C)n1cc(-c2cc(-c3ccc(CN4CCOCC4)cc3)cnc2N)nn1,inhibition,[1],-1.2%
same,inhibition,[2],8.3%
same,inhibition,[3],10.8%
same,inhibition,[4],16.4%
same,inhibition,[5],-2.3%
same,inhibition,[6],-7.4%
same,inhibition,[7],3.1%
same,inhibition,[8],3.8%
same,inhibition,[9],26.4%
same,inhibition,[10],9.6%
same,inhibition,[11],-1.7%
same,inhibition,[12],-0.5%
same,inhibition,[13],11.8%
same,inhibition,[14],2.8%
same,inhibition,[15],-0.4%
same,inhibition,[16],0.3%
same,Kp uu,[17],0.76
same,inhibition,[18],7.7%
